Reference: patent US10493042B2, “Method for preventing or treating diabetes mellitus, and method for screening for diabetes mellitus therapeutic agent” (UNIVERSITY-INDUSTRY COOPERATION GROUP OF KYUNG HEE …, priority 2013, dated 2019)

What was measured:
NCI-H716 cell [1] = experiment: GLP-1 secretion in human enteroendocrine cell (ELISA); format: cell-based; conditions: 10, 20, 50, 100, 200, 500, 1000 and 2000 μM, 1 hour, FIG. 1A
Procedure: A NCI-H716 cell, i.e., a human enteroendocrine cell, was obtained from Korean Cell Line Bank. The obtained cell was culture in RPMI 1640 medium until the number of obtained cells increased in a proper amount. Then. the cells were moved to a matrigel-coated plate, and then cultured in DMEM medium for 48 hours, for endocrine differentiation.
Geraniol and nerol were purchased from Signa-Aldrich, USA.
Human enteroendocrine cells were each treated with geraniol at a concentration of 10, 20, 50, 100, 200, 500, 1000, and 2000 μM, respectively, and then cells were cultured for 1 hour. A human enteroendocrine cell was treated with nerol, which is an isomer of geraniol, as a comparison group, i.e., a negative control group, under the same condition as in the treating with geraniol.
GLP-1 secretion from the cell treated with geraniol and the cell treated with nerol were identified using enzyme-linked immunosorbent assay (ELISA). ELISA was carried out using a GLP-1 ELISA kit, available from Millipore, based on the user manual. The amount of GLP-1 secretion was measured using a fluoroskan ascent microplate reader (Thermo Electron Corp., Finland).

olfactory receptor OR1A1 = molecular target: T1, olfactory receptor OR1A1 (Homo sapiens, UniProt Q9P1Q5); experiment: GLP-1 secretion by geraniol in enteroendocrine cell with OR1A1 knocked-down by siRNA; format: cell-based; conditions: 100 μM, 1 hour, OR1A1 knocked-down vs normal cell, FIG. 1B
T1 construct: endogenous in cells; host or cells: human enteroendocrine cell (NCI-H716 named)
T1 sequence (Q9P1Q5 1-309): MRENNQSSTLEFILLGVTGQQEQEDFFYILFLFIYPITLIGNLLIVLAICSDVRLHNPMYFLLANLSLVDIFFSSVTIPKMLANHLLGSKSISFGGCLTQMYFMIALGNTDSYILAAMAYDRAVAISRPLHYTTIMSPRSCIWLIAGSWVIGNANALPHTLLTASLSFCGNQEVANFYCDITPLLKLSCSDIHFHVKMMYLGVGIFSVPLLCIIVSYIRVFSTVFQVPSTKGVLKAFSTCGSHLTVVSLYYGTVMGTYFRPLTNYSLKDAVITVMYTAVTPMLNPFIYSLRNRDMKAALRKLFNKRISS
Procedure: (§1) In a human enteroendocrine cell, in which an olfactory receptor is knocked-down by small-interference RNA (siRNA), an olfactory receptor signal transduction mechanism was identified.
(§2) Human enteroendocrine cells in which olfactory receptors OR1A1 and OR1G1 were knocked-down by siRNAs, respectively, were cultured. SiRNAs for knocking-down OR1A1 (SEQ ID NO. 1 and 2, siRNA No. 1108058) and OR1G1 (SEQ ID NO. 3 and 4, siRNA No. 1108121) are available from Bioneer Co. (South Korea). Lipofectamine 2000 (available from Life technology, USA) was used to carry out intracellular transfection, based on the user manual.
(§3) The human enteroendocrine cells in which olfactory receptors were knocked-down and a normal human enteroendocrine cell were each treated with geraniol at a concentration of 100 μM. Then, the cells were cultured for 1 hour at 37° C. at a concentration of 5% CO2. Thereafter, GLP-1 secretion was identified using ELISA.

olfactory receptor OR1G1 = molecular target: T2, olfactory receptor OR1G1 (Homo sapiens, UniProt P47890); experiment: GLP-1 secretion by geraniol in enteroendocrine cell with OR1G1 knocked-down by siRNA; format: cell-based; conditions: 100 μM, 1 hour, OR1G1 knocked-down vs normal cell, FIG. 1C
T2 construct: endogenous in cells; host or cells: human enteroendocrine cell (NCI-H716 named)
T2 sequence (P47890 1-313): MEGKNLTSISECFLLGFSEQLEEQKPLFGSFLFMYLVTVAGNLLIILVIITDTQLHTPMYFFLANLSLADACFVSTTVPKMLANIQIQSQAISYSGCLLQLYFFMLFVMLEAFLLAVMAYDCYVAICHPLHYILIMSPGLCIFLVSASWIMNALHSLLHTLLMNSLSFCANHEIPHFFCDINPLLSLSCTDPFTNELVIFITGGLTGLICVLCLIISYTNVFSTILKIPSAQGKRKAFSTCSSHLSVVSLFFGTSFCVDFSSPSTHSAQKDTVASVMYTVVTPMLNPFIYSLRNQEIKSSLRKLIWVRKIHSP
Procedure: as §1, §2, §3

[2] = tested on: human enteroendocrine cell; experiment: Change of calcium concentration in human enteroendocrine cell; format: cell-based; conditions: 100 μM, treated after 1 minute elapsed from the start of the experiment, FIG. 2
From the text: FIG. 2 is a graph showing the change of calcium concentration in a human enteroendocrine cell after geraniol treatment.

[3] = tested on: human enteroendocrine cell; experiment: Change amount of cAMP in human enteroendocrine cell (cAMP ELISA); format: cell-based; conditions: 100 μM geraniol, FIG. 3
Procedure: In a human enteroendocrine cell, the result of geraniol treatment (100 μM) and forskolin treatment (10 μM), which is a cAMP activator, were compared with each other.

[4] = tested on: db/db mouse, type II diabetes mellitus model; experiment: Oral glucose tolerance test after gavage; format: in vivo
Procedure: Oral glucose tolerance test was performed on a db/db mouse (leptin receptor knocked-out mice) (35 g to 39 g), which is a type II diabetes mellitus model. A male 6 week-old db/db mouse was purchased from Daehan Biolink Co., Ltd (DBL, South Korea). A fasting blood sugar level of a db/db mouse of 18 hour-gastric emptying fasted state was measured. Then, the experimental group and the control group were each oral administered with geraniol and metformin, and saline via gavage. Geraniol was administered at 150 or 500 mg/weight Kg, and metformin was administered at 300 mg/weight Kg. Then, each group was administered with glucose of 5 g/weight Kg. Oral glucose tolerance test (OGTT) was performed after 10 minutes, 20 minutes, 40 minutes, 90 minutes, and 120 minutes elapsed.

[5] = tested on: db/db mouse, type II diabetes mellitus model; experiment: Plasma GLP-1 and insulin after gavage and glucose (multiplex assay); format: in vivo; conditions: oral administration, glucose 2 g/weight Kg, compared with PBS group
Procedure: By using the same method in Example 2 (1), db/db mice of fasted state were each gavaged with geraniol, metformin, or saline. Then, each group were administered with glucose of 2 g/weight Kg. after 10 minutes, 20 minutes, 30 minutes, and 40 minutes elapsed, the amount of GLP-1 and insulin in plasma were measured by using multiplex assay (available from Bio-Rad, USA), based on the user manual, and Bio-Plex MAGPIX multiplex reader (available from Bio-Rad, USA).

[6] = tested on: db/db mouse, type II diabetes mellitus model; experiment: Oral glucose tolerance test with geraniol smelling (olfactory stimulation); format: in vivo
Procedure: A male 6 week-old db/db mouse was purchased from Daehan Biolink Co., Ltd (DBL, South Korea). A fasting blood sugar level of a db/db mouse of 18 hour-gastric emptying fasted state was measured. Then, the experimental group was stimulated (smelling) with geraniol through olfaction. The control group was oral administered with saline and metformin of 300 mg/weight Kg via gavage. Then, each of the experimental group and the control group were administered with glucose of 2 g/weight Kg. After 10 minutes, 20 minutes, 40 minutes, 90 minutes, and 120 minutes elapsed, the amount of GLP-1 in plasma was verified by using multiplex assay (available from Bio-Rad, USA).

NCI-H716 cell [7] = experiment: Cell viability MTT assay; format: cell-based, human; conditions: 10 μM to 1000 μM, 1 hour, compared with PBS, FIG. 8
Procedure: In order to verify cytotoxicity of geraniol on a human enteroendocrine cell, MTT assay was carried out as follows. In detail, cell viability assay was carried out using 3-(4,5-dimethylthiazol-2-yl)-2,5-diphenyltetrazolium) bromide (MTT) (available from Invitrogen, Carlsbad, Calif., USA). An endocrine cell, a NCI-H716 cell, was treated with geraniol of different levels of concentration and 6 mM MTT for 1 hour. Dimethyl sulfoxide (DMSO) was added to the cells, and absorbance thereof was measured using Bio-Rad model 680 microplated reader (Bio-Rad, Hercules, Calif., USA) at 540 nm.

Structure (SMILES)	GLP-1 secretion promoting effect (NCI-H716 cell [1])	GLP-1 secretion via stimulation of OR1A1 (olfactory receptor OR1A1)	GLP-1 secretion via stimulation of OR1G1 (olfactory receptor OR1G1)	time at which calcium concentration in the cell was the highest [2]	time after treatment at which concentration of cAMP in the cell was the highest [3]	hypoglycemic effect at oral glucose tolerance test ([4]; gavage 150 or 500 mg/weight Kg, glucose 5 g/weight Kg, compared with saline group, FIG. 5A-5C)	hypoglycemic effect compared with metformin ([4]; geraniol gavage 150 or 500 mg/weight Kg vs metformin 300 mg/weight Kg)	plasma GLP-1 ([5]; FIG. 6A, 6C)	plasma insulin ([5]; FIG. 6B, 6D)	blood sugar level ([6]; geraniol smelling (olfactory stimulation), FIG. 9)	amount of GLP-1 in plasma ([6]; geraniol smelling, 10 minutes after glucose 2 g/weight Kg, vs metformin 300 mg/weight Kg oral, FIG. 10)	cytotoxicity (cell viability, MTT) (NCI-H716 cell [7])
CC(C)=CCC/C(C)=C/CO [geraniol]	dose-dependently promotes GLP-1 secretion	stimulates OR1A1, an olfactory receptor, promoting GLP-1 secretion	stimulates OR1G1, an olfactory receptor, promoting GLP-1 secretion	4 min	30 min	exhibited hypoglycemic effect	comparable to metformin	secretion inducing of GLP-1	additional insulin	lowered the blood sugar level	increased more than the case of metformin administration	found not to have cytotoxicity
CC(C)=CCC/C(C)=C\CO [nerol, reference compound]	had no GLP-1 secretion promotion effect											
